Laboratory results: ChEMBL document CHEMBL3779831, “Nitric Oxide Inhibitory Dimeric Sesquiterpenoids from Artemisia rupestris” (J Nat Prod, 2016)

Tests used:
[1] = Cytotoxicity against […] cells assessed as cell viability by MTT assay relative to control; type: cell-based, BV-2; set-up: concentration or dose not given beside the values; conditions: Mus musculus, read-out: Activity
BV-2 = assay: Inhibition of LPS-induced nitric oxide production in […] cells after 24 hrs by Griess assay; type: functional, cell-based; conditions: Mus musculus, BV-2, 24 h

Row | Structure (SMILES) | viability [1] [%] | IC50 (BV-2) [µM]
1 | C=C(C(=O)O)[C@@H]1CC[C@H](C)C2=C(C1)[C@]1(C)C[C@H]2C[C@@]1(C(=O)O)[C@@H]1CC[C@H](C)[C@@H]2CC(=O)C(C)=C2C1 | 90.7 | 32.7
2 | C=C(C(=O)O)[C@@H]1CC[C@]2(C)[C@@H](C1)C(C)=C[C@H]1[C@@H]2C[C@]1(C(=O)O)[C@@H]1CC[C@H](C)[C@@H]2CC(=O)C(C)=C2C1 | 91.1 | 39.8
3 | C=C(C(=O)O)[C@@H]1CC[C@@]2(C)C=C[C@@H]3[C@@](C)(C[C@@]3(C(=O)O)[C@@H]3CC[C@H](C)[C@@H]4CC(=O)C(C)=C4C3)[C@@H]2C1 | 95.7 | 27.3
4 | C=C(C(=O)O)[C@@H]1CC[C@@]2(C)C[C@@H](OC(=O)C(=C)[C@@H]3CC[C@H](C)[C@@H]4CC(=O)C(C)=C4C3)C[C@@](C)(O)[C@@H]2C1 | 97.2 | 40.6
5 | C=C(C(=O)O)[C@@H]1CC[C@H](C)C2=C(C1)[C@@]1(C)C[C@@H]2[C@](C(=O)O)([C@@H]2CC[C@H](C)[C@@H]3CC(=O)C(C)=C3C2)C1 | 90.7 | 38.6
6 | C=C(C(=O)O)[C@@H]1CC[C@@]2(C)[C@@H](OC(=O)C(=C)[C@@H]3CC[C@H](C)[C@@H]4CC(=O)C(C)=C4C3)C=C(C(C)=O)[C@@]2(O)C1 | 95.4 | 30.1
7 | C=C(C(=O)O)[C@@H]1CC[C@H](C)C23C[C@]4(C(=O)O[C@]56C[C@H]4CC[C@H](C)[C@@H]5CC[C@]6(C)O)[C@@H](C(C)=C2C1)[C@@H]3O | 91.8 | 71.8
8 | C=C(C(=O)O)[C@@H]1CC[C@H](C)C2=C[C@@H]3[C@@]4(CC2(C1)[C@@]3(C)O)C(=O)O[C@]12C[C@H]4CC[C@H](C)[C@@H]1CC[C@]2(C)O | 77.3 | 43.6
9 | C=C(C(=O)O)[C@@H]1CC[C@H](C)C2=C(C1)[C@]1(C)C[C@H]2C[C@@]1(C(=O)O)[C@@H]1CC[C@H](C)[C@@H]2CC(=O)C(C)=C2[C@H]1O | 91.1 | 23
10 | C=C(C(=O)O)[C@@H]1CC[C@]2(C)C(=C(C)[C@@H](O)[C@H]3[C@@H]2C[C@]3(C(=O)O)[C@@H]2CC[C@H](C)[C@@H]3CC(=O)C(C)=C3C2)C1 | 94.6 | 29.8
11 | C=C(C(=O)O)[C@@H]1CC[C@H](C)[C@]23C[C@H](C(C)=C2C1)[C@]1(C3)C(=O)O[C@]23C[C@H]1CC[C@H](C)[C@@H]2CC[C@]3(C)O | 89.1 | 17
12 | C=C(C(=O)O)[C@@H]1CC[C@]2(C)[C@@H](C1)C(C)=C[C@@H](OC(=O)C(=C)[C@@H]1CC[C@H](C)[C@@H]3CC(=O)C(C)=C3C1)[C@@H]2O | 96.7 | 33
13 | O=c1c(O)c(-c2ccc(O)c(O)c2)oc2cc(O)cc(O)c12 [QUERCETIN] | 99.5 | 8.7
